15 compounds from patent US20070254863A1 (priority 2006, published 2007) can be followed below.

The subject of assay [1] is rat perifused pancreatic islets. In words: KATP opening effects through insulin secretion in rat perifused pancreatic islets. The class given is cell-based. The following applies: 11 mM glucose; for % Inhibition 0-30 (insulin secretion): 0-30 minutes; for % Inhibition 30-60 (insulin secretion): 30-60 minutes.
Description: Determination of the KATP Opening Effects of Compounds Through Insulin Secretion in Rat Perifused Pancreatic Islets
The animals were maintained on a 12 h light-dark cycle (lights on 06.00-18.00 h) with free access to standard rodent diet (B&K Universal Ltd standard rat and mouse diet (BK 001P), Beekay Feeds, B&K Universal Ltd, Hull, East Riding of Yorkshire) and tap water. The rats were conditioned to this environment for at least one week before experimentation.
Experimental procedures: After the rats were sacrificed, the branch of the bile duct leading to the liver and the duodenal end of the duct in the pancreas were clamped and the pancreas distended by injection of ice-cold 0.9 mg/ml collagenase solution into the bile duct. […] Following incubation, 10 ml of cold buffer was added and the suspension shaken vigorously by hand for 1 min. The islets were allowed to settle for 5 min on ice and washed three times using ice-cold buffer. Well-formed and good-sized islets from three rats were hand-picked (under a low power microscope) and pooled and a final selection of islet transferred to the perifusion apparatus.
Two experiments were performed in parallel in two identical, independent sets of perifusion apparatus each consisting of sufficient number of chambers. Each chamber was loaded with 20 hand-picked islets. Islets were perifused for an initial 30 min period in media containing 4 mM glucose. Perifusate was then collected at 2 min intervals for the remainder of the experiment. […] Perifusate fractions were stored at −75° C. until required for insulin assay. Insulin content of fractions were assayed using a 96-well ELISA assay (Mercodia). Initial insulin assays were performed in triplicate on three pooled fractions from each chamber.
Data were initially expressed as a simple mean of the three experiments for insulin secretion (pg/islet/min) and multiple t-tests (against the corresponding vehicle time period) used to determine potential significant effects of treatments. Alternatively, data were also calculated as a % vehicle effect for each experimental day. This latter approach was deemed to be the more powerful analysis as it corrected for the day to day variation in insulin release from the islets.
The next assay has as its target T1, hamster SUR1 (Cricetus cricetus, UniProt Q09427).
T1 construct: expressed in transfected cells; host or cells: COS-1 cells, transient (pcDNA vector)
Put plainly: In vitro binding affinity to rodent KATP channels: SUR1 ([3H]glibenclamide displacement, COS cell membranes). The conditions noted are these: hamster SUR1 in COS cell membranes; read-out: Affinity to SUR 1 (converted).

The target in assay [2] is human cannabinoid CB2 receptor (Homo sapiens, UniProt P34972). In words: biochemical. The class given is binding. The procedure: 3. In Vitro Binding Affinity of the Test Compounds to CB2 Receptors
After incubation of a freshly prepared cell membrane preparation with the [^3H]-ligand, with or without the addition of the compounds described herein, separation of bound and free ligand is performed by filtration over glass-fiber filters. Radioactivity on the filter is measured by liquid scintillation counting.

The target in the next assay is rat SUR2A (Rattus norvegicus, UniProt Q63563). Put plainly: In vitro binding affinity to rodent KATP channels: SUR2A ([3H]P1075 / [3H]glibenclamide displacement, COS cell membranes). A digest of the protocol:
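COS-cell membranes transiently expressing rat SUR2A incubated 1 h at room temperature in 50 mM Tris pH 7.4, ~0.7 mM free Mg2+, with 3 nM [3H]P1075 (wild type) or [3H]glibenclamide (SUR2AY1205S); filtration read-out. Ki from IC50, reported as pKi; 9-15 concentrations per curve.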

The mark [3] stands for this setting: cloned human CB2 receptor expressed in CHO cells, read-out: Affinity to CB2 (converted).

The structures appear in SMILES notation. Like-named read-outs stand apart in the source and are kept apart here.

Sequence of human cannabinoid CB2 receptor (P34972 whole entry): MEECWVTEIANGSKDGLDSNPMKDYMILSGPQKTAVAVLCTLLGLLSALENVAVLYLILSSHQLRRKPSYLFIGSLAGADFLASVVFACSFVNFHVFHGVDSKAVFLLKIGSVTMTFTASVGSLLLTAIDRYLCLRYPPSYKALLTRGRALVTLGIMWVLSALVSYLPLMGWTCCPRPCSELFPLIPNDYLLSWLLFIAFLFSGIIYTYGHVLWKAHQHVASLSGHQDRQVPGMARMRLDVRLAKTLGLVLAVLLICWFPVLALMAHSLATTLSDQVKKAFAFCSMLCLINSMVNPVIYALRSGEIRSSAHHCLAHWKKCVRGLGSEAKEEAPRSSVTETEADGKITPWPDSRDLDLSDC
T1 sequence (Q09427 whole entry): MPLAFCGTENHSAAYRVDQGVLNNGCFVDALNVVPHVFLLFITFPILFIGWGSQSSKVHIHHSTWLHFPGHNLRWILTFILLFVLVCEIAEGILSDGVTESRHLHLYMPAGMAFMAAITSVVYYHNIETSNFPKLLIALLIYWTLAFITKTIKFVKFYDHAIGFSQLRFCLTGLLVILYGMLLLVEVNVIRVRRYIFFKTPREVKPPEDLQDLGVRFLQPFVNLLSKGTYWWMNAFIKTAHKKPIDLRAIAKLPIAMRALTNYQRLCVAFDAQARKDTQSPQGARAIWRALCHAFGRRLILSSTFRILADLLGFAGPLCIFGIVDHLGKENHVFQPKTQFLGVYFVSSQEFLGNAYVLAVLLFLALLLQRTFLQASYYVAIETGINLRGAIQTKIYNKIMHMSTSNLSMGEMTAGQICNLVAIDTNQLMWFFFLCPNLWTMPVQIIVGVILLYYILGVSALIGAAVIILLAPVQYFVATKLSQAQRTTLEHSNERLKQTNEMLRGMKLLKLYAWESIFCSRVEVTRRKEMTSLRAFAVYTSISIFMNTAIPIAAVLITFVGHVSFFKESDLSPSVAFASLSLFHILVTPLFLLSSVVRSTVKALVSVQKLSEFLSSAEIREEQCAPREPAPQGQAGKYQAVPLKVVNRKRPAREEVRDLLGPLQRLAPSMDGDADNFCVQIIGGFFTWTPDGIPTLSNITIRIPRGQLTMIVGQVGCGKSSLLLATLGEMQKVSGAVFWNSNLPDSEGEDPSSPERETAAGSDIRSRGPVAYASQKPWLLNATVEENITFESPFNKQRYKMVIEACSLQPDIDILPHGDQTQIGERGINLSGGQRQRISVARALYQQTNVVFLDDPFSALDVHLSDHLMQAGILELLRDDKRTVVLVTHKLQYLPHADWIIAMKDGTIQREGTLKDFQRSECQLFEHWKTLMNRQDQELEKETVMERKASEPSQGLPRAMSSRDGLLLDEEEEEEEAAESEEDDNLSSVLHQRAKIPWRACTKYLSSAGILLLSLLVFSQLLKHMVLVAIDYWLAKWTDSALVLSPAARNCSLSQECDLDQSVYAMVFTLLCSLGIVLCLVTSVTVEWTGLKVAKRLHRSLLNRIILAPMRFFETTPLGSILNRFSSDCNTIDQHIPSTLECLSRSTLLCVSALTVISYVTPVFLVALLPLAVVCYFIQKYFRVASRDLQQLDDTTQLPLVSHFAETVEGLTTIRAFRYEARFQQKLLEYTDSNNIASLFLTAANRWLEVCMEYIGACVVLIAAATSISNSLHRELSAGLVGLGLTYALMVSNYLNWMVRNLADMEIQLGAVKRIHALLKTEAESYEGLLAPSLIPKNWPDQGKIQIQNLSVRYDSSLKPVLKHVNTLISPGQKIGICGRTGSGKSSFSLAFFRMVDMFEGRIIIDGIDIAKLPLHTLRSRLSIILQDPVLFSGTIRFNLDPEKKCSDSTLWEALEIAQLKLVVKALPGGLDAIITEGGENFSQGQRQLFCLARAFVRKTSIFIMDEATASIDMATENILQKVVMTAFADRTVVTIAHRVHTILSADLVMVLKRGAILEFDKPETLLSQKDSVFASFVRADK
Sequence of rat SUR2A (Q63563 whole entry): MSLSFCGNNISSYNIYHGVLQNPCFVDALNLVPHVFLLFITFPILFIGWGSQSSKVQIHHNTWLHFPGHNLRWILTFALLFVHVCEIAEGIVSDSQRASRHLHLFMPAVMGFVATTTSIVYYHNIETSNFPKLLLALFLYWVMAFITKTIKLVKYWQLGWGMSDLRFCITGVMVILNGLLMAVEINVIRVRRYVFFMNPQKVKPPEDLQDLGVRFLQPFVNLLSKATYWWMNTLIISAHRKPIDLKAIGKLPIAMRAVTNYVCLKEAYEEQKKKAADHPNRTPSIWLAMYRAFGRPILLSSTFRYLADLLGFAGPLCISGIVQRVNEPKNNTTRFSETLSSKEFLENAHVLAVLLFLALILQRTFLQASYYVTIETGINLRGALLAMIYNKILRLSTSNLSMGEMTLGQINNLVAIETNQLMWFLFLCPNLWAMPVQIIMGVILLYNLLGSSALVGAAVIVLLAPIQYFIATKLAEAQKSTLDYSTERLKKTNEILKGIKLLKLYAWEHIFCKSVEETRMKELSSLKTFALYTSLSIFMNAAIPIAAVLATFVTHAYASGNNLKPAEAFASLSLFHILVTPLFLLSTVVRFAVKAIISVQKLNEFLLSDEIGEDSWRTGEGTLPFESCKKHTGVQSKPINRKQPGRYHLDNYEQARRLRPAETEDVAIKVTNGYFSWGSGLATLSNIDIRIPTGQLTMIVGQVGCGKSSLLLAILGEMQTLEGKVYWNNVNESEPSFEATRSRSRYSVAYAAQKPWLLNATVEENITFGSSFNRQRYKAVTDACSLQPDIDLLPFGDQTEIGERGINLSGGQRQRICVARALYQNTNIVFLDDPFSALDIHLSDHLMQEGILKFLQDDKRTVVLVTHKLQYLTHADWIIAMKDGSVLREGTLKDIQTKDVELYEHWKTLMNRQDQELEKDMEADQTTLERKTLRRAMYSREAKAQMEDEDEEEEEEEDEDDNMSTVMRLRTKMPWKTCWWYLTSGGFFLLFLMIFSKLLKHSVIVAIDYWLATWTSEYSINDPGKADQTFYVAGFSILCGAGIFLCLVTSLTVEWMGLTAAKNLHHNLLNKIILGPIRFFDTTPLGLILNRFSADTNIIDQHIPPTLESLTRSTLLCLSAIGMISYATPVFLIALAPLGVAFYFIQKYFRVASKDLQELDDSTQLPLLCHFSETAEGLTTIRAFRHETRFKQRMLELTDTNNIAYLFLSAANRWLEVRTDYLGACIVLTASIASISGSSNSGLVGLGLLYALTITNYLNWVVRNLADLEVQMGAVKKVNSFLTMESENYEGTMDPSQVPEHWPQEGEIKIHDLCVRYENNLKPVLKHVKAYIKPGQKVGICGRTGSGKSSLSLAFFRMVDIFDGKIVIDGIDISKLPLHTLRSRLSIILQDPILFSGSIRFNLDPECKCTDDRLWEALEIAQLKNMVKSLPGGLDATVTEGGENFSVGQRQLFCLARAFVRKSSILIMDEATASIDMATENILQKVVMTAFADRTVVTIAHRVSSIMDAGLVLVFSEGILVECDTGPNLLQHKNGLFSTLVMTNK

For `CON/C(=N\S(=O)(=O)c1ccc(Cl)cc1)N1C[C@H](c2cccc(F)c2)C(c2ccc(Cl)cc2)=N1` (stereo in doubt) [4-Chloro-N-{[3-(4-chloro-phenyl)-4-(3-fluoro-phenyl)-4,5-dihydro-pyrazol-1-yl]-methoxyamino-methylene}-benzenesulfonamide], in assay [1], the “% Inhibition 0-30 (insulin secretion)” value turned out to be 90% and the “% Inhibition 30-60 (insulin secretion)” value came to 95%.
`CN1CCCCC1Cn1cc(C(=O)c2cc([N+](=O)[O-])ccc2I)c2ccccc21` (stereo not drawn) [AM-1241, (2-Iodo-5-nitro-phenyl)-[1-(1-methyl-piperidin-2-ylmethyl)-1H-indol-3-yl]-methanone, reference compound]: the Ki on hamster SUR1 was 3980 nM. In assay [2] (setting [3]), the Ki is 15.8 nM. Besides, in assay [1], the “% Inhibition 0-30 (insulin secretion)” value is on record as 97% and the “% Inhibition 30-60 (insulin secretion)” value worked out at 74%.
For the compound `CN/C(=N\S(=O)(=O)c1ccc(Cl)cc1)N1C[C@H](c2ccccc2)C(c2ccc(Cl)cc2)=N1`, on hamster SUR1, the Ki was 501 nM. In assay [1], the “% Inhibition 0-30 (insulin secretion)” value came out at 42% and the “% Inhibition 30-60 (insulin secretion)” value is listed as 22%.
In general, pKi refers to the negative decadic logarithm of the Ki, by convention in mol/L. Lower therefore signals a large Ki. On to `CN/C(=N\S(=O)(=O)c1ccc(C(F)(F)F)cc1)N1CC(c2cccnc2)C(c2ccc(Cl)cc2)=N1` (stereo not drawn) [N-([3-(4-Chloro-phenyl)-4-pyridin-3-yl-4,5-dihydro-pyrazol-1-yl]-methylamino-methylene}-4-trifluoromethyl-benzenesulfonamide], for which, at hamster SUR1, the Ki was 501 nM. For the same compound, the pKi on rat SUR2A stood at 4.9. In assay [1], the “% Inhibition 0-30 (insulin secretion)” value was 58% and the “% Inhibition 30-60 (insulin secretion)” value amounted to 31%.
The like results for `CN(C)CCNC(=NS(=O)(=O)N1CCCCC1)N1CC(c2ccccc2)C(c2ccc(Cl)cc2)=N1` (stereo not drawn) [Piperidine-1-sulfonic acid [3-(4-chloro-phenyl)-4-phenyl-4,5-dihydro-pyrazol-1-yl]-(2-dimethylamino-ethylamino)-methyleneamide] were, in that order, 100000 nM, 4.0, 71% and 64%.
As to `Cc1c(C(=O)NN2CCCCC2)nn(-c2ccc(Cl)cc2Cl)c1-c1ccc(Cl)cc1` [Rimonabant, 5-(4-Chloro-phenyl)-1-(2,4-dichloro-phenyl)-4-methyl-1H-pyrazole-3-carboxylic acid piperidin-1-ylamide, reference compound], the Ki at hamster SUR1 was 5010 nM. Also, in assay [1], the “% Inhibition 0-30 (insulin secretion)” value is reported as 22% and the “% Inhibition 30-60 (insulin secretion)” value was 18%.
Turning to `CN/C(=N\S(=O)(=O)N(C)C)N1CC(c2cccc(F)c2)C(c2ccc(Cl)cc2)=N1` (stereo not drawn) [N-{[3-(4-Chloro-phenyl)-4-(3-fluoro-phenyl)-4,5-dihydro-pyrazol-1-yl]-methylamino-methylene}-N,N-dimethyl-sulfonamide], the Ki on hamster SUR1 was 100 nM. The pKi at rat SUR2A came to 5.3. In assay [1], the “% Inhibition 0-30 (insulin secretion)” value is 72% and the “% Inhibition 30-60 (insulin secretion)” value is on record as 77%.
`Cc1c(C(=O)c2cccc3ccccc23)c2cccc3c2n1[C@H](CN1CCOCC1)CO3` [drawing 112, (2-Methyl-3-morpholin-4-ylmethyl-3,4-dihydro-5-oxa-2a-azacenaphthylen-1-yl)-naphthalen-1-yl-methanone, reference compound]: in assay [1], the “% Inhibition 0-30 (insulin secretion)” value is 69% and the “% Inhibition 30-60 (insulin secretion)” value is recorded as 40%.
Regarding `CCc1c(C(=O)NN2CCCCC2)nc(-c2ccccc2Cl)n1-c1ccc(Cl)cc1` [1-(4-Chloro-phenyl)-2-(2-chloro-phenyl)-5-ethyl-1H-imidazole-4-carboxylic acid piperidin-1-ylamide, reference compound], the Ki in assay [2] is 1000 nM. Further, on rat SUR2A, the pKi is on record as 4.8. Besides, in assay [1], the “% Inhibition 0-30 (insulin secretion)” value was found to be 59% and the “% Inhibition 30-60 (insulin secretion)” value was found to be 45%.
Regarding `CN/C(=N\S(=O)(=O)N1CCOCC1)N1CC(c2ccccc2)C(c2ccc(Cl)cc2)=N1` (stereo not drawn) [drawing 118, Morpholine-4-sulfonic acid [3-(4-chloro-phenyl)-4-phenyl-4,5-dihydro-pyrazol-1-yl]-methylamino-methyleneamide], in assay [1], the “% Inhibition 0-30 (insulin secretion)” value is 83% and the “% Inhibition 30-60 (insulin secretion)” value is 91%.
Turning to `CCCCCCC(C)(C)c1ccc([C@@H]2C[C@H](O)CC[C@H]2CCCO)c(O)c1` (stereo in doubt) [CP55940, 5-(1,1-Dimethyl-heptyl)-2-[5-hydroxy-2-(3-hydroxy-propyl)-cyclohexyl]-phenol, reference compound], the Ki on hamster SUR1 was 5010 nM. For the same compound, in assay [1], the “% Inhibition 0-30 (insulin secretion)” value was 91% and the “% Inhibition 30-60 (insulin secretion)” value was 56%.
In the case of `CNC(=NS(=O)(=O)N1CCCCC1)C1=NN(c2ccc(Cl)cc2)C(c2ccccc2)C1` (stereo not drawn) [Piperidine-1-sulfonic acid [1-(4-chloro-phenyl)-5-phenyl-4,5-dihydro-1H-pyrazol-3-yl]-methylamino-methyleneamide], on hamster SUR1, the Ki is 794 nM. In addition, the negative logarithm of the Ki (pKi) at rat SUR2A was determined as 4.5. Further, in assay [1], the “% Inhibition 0-30 (insulin secretion)” value is given as 84% and the “% Inhibition 30-60 (insulin secretion)” value is given as 47%.
`CSc1c(C(=O)NN2CCCCC2)nc(-c2ccccc2Cl)n1-c1ccc(Cl)cc1` [1-(4-Chloro-phenyl)-2-(2-chloro-phenyl)-5-methylsulfanyl-1H-imidazole-4-carboxylic acid piperidin-1-ylamide]: the Ki on hamster SUR1 is 6.31 nM. Moreover, in assay [2] (setting [3]), the Ki was 6310 nM. In addition, in assay [1], the “% Inhibition 0-30 (insulin secretion)” value was determined as 56% and the “% Inhibition 30-60 (insulin secretion)” value is recorded as 36%.
Take `Cc1c(C(=O)c2cccc3ccccc23)c2cccc3c2n1[C@H](CN1CCOCC1)CO3` [R(+)-WIN55212-2, (2-Methyl-3-morpholin-4-ylmethyl-3,4-dihydro-5-oxa-2a-azacenaphthylen-1-yl)-naphthalen-1-yl-methanone, reference compound]: the Ki at hamster SUR1 was 39800 nM. Also, in assay [1], the “% Inhibition 0-30 (insulin secretion)” value stood at 80% and the “% Inhibition 30-60 (insulin secretion)” value was found to be 35%.
Turning to `CN/C(=N\S(=O)(=O)c1ccc(Cl)cc1)N1C[C@@H](c2ccccc2)C(c2ccc(Cl)cc2)=N1` (stereo in doubt) [4-Chloro-N-{[3-(4-chloro-phenyl)-4-phenyl-4,5-dihydro-pyrazol-1-yl]-methylamino-methylene}-benzenesulfonamide], in assay [1], the “% Inhibition 0-30 (insulin secretion)” value is reported as 59% and the “% Inhibition 30-60 (insulin secretion)” value worked out at 25%.
